Data reported in patent publication EP0311107A2, “Anti-HIV active 3'-fluoro-purine-2',3'-dideoxyribosides” (priority 1987, dated 1989).
Where two headings read alike, the source gives them in different places. Marks after values point to notes of the source that are not given here.

What was measured:
[1] = tested on: Moloney murine sarcoma virus (MSV); test: MSV-induced C3H cell transformation; format: cell-based; details: for EC50: Moloney murine sarcoma virus, C3H; for MSV-induced C3H cell transformation S.I.: selectivity index, ratio of 50% cytotoxic dose to 50% antivirally effective dose
Description: For transformation of C3H mouse embryo cells by Molo ney murine sarcoma virus (MSV), confluent monolayers of C3H cells in 1 ml wells of Tissue Culture Cluster plates were infected wiht 150 foci-forming units of MSV during 90 min, whereafter medium was replaced by 1 ml fresh culture medium containing different concentrations of test compound. After 6-7 days incubation at 37°C, transformation of the cell cultures was monitored microscopically.
(§1) A series of novel 2,6-diaminopurine and guanine 2′,3′-dideoxynucleoside analogues in which the 2′,3′-dideoxyribose moiety is substituted by a 3′-fluoro group, or replaced by arabinose or 2′-deoxyxylose were evaluated for their effect on the transformation of C3H mouse embryo cells by Moloney murine sarcoma virus (MSV) (Table 1) and the cytopathogenicity induced by HIV in human T4 lymphocyte MT4 cells (Table 1, Fig. 2).

[2] = tested on: MT4; test: Cytostatic effect against MT4 cells; format: cell-based; details: Homo sapiens, read-out: Inhibitory dose-50 MT4
Description: (§2) The cultivation of Raji, Molt/4F, CEM, H9, HUT-78 and MT4 cells has been described in Balzarini, J, et al, Biochem. Biophys. Res. Commun. 136:64-71 (1986b) and Pauwels, R. et al, J. Virol. Methods, 16:171-185 (1987).
(§3) The cytostatic effects of the compounds listed in Table 1 were examined against several human B-lymphoblast Raji, T-lymphoblast Molt/4F and T-lymphocyte CEM, H9 and MT4 cell lines (Table 2). […] In no case is the ID₅₀ of the compounds for tumor cell proliferation lower than 60 µM. FddGuo is slightly more cytostatic than FddDAPR (ID₅₀ : 190 to 228 µM, and 233 to >1000 µM, respectively). XylodDAPR and araDAPR are devoid of any anti-cellular activity, even when tested at a concentration as high as 1000 µM.

[3] = tested on: T-lymphocyte CEM; test: Cytostatic effect against CEM cells; format: cell-based; details: Homo sapiens, CCRF-CEM, read-out: Inhibitory dose-50 CEM
Description: as §2, §3

[4] = tested on: H9; test: Cytostatic effect against H9 cells; format: cell-based; details: Homo sapiens, read-out: Inhibitory dose-50 H9
Description: as §2, §3

[5] = in vitro; format: cell-based; details: mouse, c3h cells
[6] = tested on: T-lymphocyte CEM; test: Cytostatic effect against CEM cells; format: cell-based; details: Homo sapiens, read-out: Inhibitory dose-50 CEM
[7] = tested on: HIV (HTLV-IIIB); test: HIV-induced cytopathogenicity in MT4 cells (viable cell count by trypan blue exclusion after 5 days); format: cell-based; details: for EC50: Human immunodeficiency virus 1, IIIB; for HIV-induced cytopathogenicity in MT4 cells S.I.: selectivity index, ratio of 50% cytotoxic dose to 50% antivirally effective dose, 7200 min; for anti-HIV activity: HIV-induced cytopathogenicity in MT4 cells, result in words
Description: (§4) For the determination of the cytopathic effect of HIV in human T-lymphocyte MT4 cells, MT4 cells, subcultured one day before the start of the experiment, were adjusted at 5 x 10⁵ cells/ml and infected with HIV (HTLV-IIIB) at 100 CCID₅₀/ml. Then, 100 µl of the infected cell suspension was brought into wells of a microtiter tray containing 100 µl of various dilutions of the test compounds. After 5 days incubation at 37°C, the number of viable cells was recorded microscopically in a hematocytometer by trypan blue exclusion.
as §1

[8] = tested on: HIV (HTLV-IIIB); details: earlier report, Balzarini et al (1987b); read-out: 50% effective dose (ED₅₀), inhibition of HIV-replication in MT4 cells; cited from earlier work
[9] = target: T1, beef intestine adenosine deaminase (ADA) (Bos taurus, UniProt P56658); details: data taken from Balzarini, J. et al (1987c); cited from earlier work
T1 construct: Kinetic properties of beef intestine adenosine deaminase for 2,6-diaminopurine 2′,3′-dideoxynucleoside analogues; purchased Boehringer Mannheim, Mannheim, West Germany; host or cells: beef intestine (tissue-derived enzyme)
T1 sequence (P56658 1-363): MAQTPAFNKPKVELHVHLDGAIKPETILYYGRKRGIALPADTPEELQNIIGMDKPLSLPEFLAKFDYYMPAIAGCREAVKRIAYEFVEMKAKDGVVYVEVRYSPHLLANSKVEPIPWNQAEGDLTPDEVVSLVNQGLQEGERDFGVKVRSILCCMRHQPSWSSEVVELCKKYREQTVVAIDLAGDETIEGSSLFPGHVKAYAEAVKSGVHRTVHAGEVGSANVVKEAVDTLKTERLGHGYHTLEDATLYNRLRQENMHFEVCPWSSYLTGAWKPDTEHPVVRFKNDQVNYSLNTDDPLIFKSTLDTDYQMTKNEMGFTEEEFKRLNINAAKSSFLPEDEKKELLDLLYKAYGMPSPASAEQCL

[10] = tested on: T-lymphoblast Molt/4F; test: Cytostatic effect against Molt/4F cells; format: cell-based; details: Homo sapiens, read-out: Inhibitory dose-50 Molt/4F
From the text: The cultivation of Raji, Molt/4F, CEM, H9, HUT-78 and MT4 cells has been described in Balzarini, J, et al, Biochem. Biophys. Res. Commun.
The cytostatic effects of the compounds listed in Table 1 were examined against several human B-lymphoblast Raji, T-lymphoblast Molt/4F and T-lymphocyte CEM, H9 and MT4 cell lines (Table 2).

[11] = tested on: B-lymphoblast Raji; test: Cytostatic effect against Raji cells; format: cell-based; details: Homo sapiens, read-out: Inhibitory dose-50 Raji
Description: as §2, §3

[12] = tested on: MT4; test: Cytostatic effect against MT4 cells; format: cell-based; details: Homo sapiens, read-out: Inhibitory dose-50 MT4; remark: listed apart in the source
[13] = in vitro; format: cell-based; details: human, mt4 cells
Description: as §4
Its anti-HIV activity is also higher than that found for its corresponding 2,6-diaminopurine derivative FddDAPR.

[14] = target: T1, beef intestine adenosine deaminase (ADA); test: Substrate kinetics for deamination by adenosine deaminase; format: biochemical
From the text: All four ddDAPR analogues were examined for their susceptibility to deamination by beef intestine adenosine de aminase (ADA).

[15] = tested on: human B-lymphoblast Raji, T-lymphoblast Molt/4F and T-lymphocyte CEM, H9 and MT4 cell lines; test: Cytostatic effects, summary over the human B- and T-cell lines; format: cell-based; details: range over the cell lines, read-out: ID₅₀ for tumor cell proliferation
Description: as §2, §3

[16] = tested on: HIV; test: Inhibition of HIV antigen expression in infected H9 or HUT-78 cells (indirect immunofluorescence, laser flow cytofluorography); format: cell-based; details: Human immunodeficiency virus 1, HuT78; H9 and HUT-78 cells; data not shown; read-out: concentration achieving 50% inhibition of HIV-induced antigen expression
From the text: The inhibitory effects of the test compounds on HIV antigen expression in infected H9 or HUT-78 cells were determined at day 8 and 14, respectively after infection, by indirect immunofluorescence and laser flow cytofluorography using a polyclonal antibody as probe, as previously described (Pauwels, R. et al, (1987)).
To confirm our anti-HIV data obtained in the MT4 cell model, we also evaluated the 3′-fluorinated ddDAPR derivatives in two other human T4 lymphocyte cell lines (H9 and HUT-78) for their inhibitory effect on viral antigen expression (data not shown). In these experiments, FddDAPR achieves 50% inhibition of HIV-induced antigen expression at a concentration range of 0.05 - 1.0 µM. This concentration range is lower than that required to inhibit HIV-induced cytopathogenicity in MT4 cells.

[17] = C3H cells, 6-7 days at 37°C, read-out: MSV-induced C3H cell transformation ED₅₀
[18] = presence of 10 µM DCF (2′-deoxycoformycin), read-out: Effective dose-50 MSV-induced C3H cell transformation
[19] = without DCF (Table 3), read-out: Effective dose-50 MSV-induced C3H cell transformation
[20] = presence of DCF (10 µM preincubation)
[21] = MT4, 120 h, MT4 cells, 5 days at 37°C, read-out: HIV-induced cytopathogenicity in MT4 cells ED₅₀
[22] = MT4, presence of 10 µM DCF (2′-deoxycoformycin), read-out: Effective dose-50 HIV-induced cytopathogenicity in MT4 cells
[23] = MT4, without DCF (Table 3), read-out: Effective dose-50 HIV-induced cytopathogenicity in MT4 cells
[24] = MT4, presence of DCF (10 µM preincubation)

EC50 [1, 17]	IC50 [3]	IC50 [4]	EC50 [7, 21]	IC50 [11]	IC50 ([10]; Molt/4F)	Vmax [14]	SMILES	MSV-induced C3H cell transformation S.I. [1]	IC50 [2]	CC50 [5]	HIV-induced cytopathogenicity in MT4 cells S.I. [7]	Vmax [9]	CC50 at 120 h [13]	further results
12 µM	119 µM	194 µM	2.4 µM	107 µM	228 µM	–	Nc1nc2c(ncn2[C@H]2C[C@H](F)[C@@H](CO)O2)c(=O)[nH]1 [FddGuo, 3′-fluoro-2′,3′-dideoxyguanosine]	> 23	197 µM	> 400 µM	96	–	231 µM	IC50 [15]: 190 to 228 µM
28 µM	233 µM	377 µM	4.5 µM	753 µM	425 µM	31 µmole/mg proten/min	Nc1nc(N)c2ncn([C@H]3C[C@H](F)[C@@H](CO)O3)c2n1 [FddDAPR, 3′-fluoro-2,6-diaminopurine 2′,3′-dideoxyriboside]	> 15	337 µM	> 400 µM	80	–	360 µM	EC50 [1, 18]: 87 µM; EC50 [1, 19]: 31 µM; IC50 [6, 20]: 739 µM; IC50 ([6]; without DCF (Table 4)): 241 µM; EC50 [7, 22]: 39 µM; EC50 [7, 23]: 4.5 µM; IC50 [10, 20]: 865 µM; IC50 ([10]; without DCF (Table 4)): 353 µM; EC50 [16]: 0.05 to 1 µM; IC50 [12, 24]: 520 µM; IC50 ([12]; MT4, without DCF (Table 4)): 469 µM
> 400 µM	> 1000 µM	> 1000 µM	> 125 µM	> 1000 µM	> 1000 µM	3.7 µmole/mg proten/min	Nc1nc(N)c2ncn([C@H]3C[C@@H](O)[C@@H](CO)O3)c2n1 [XylodDAPR]	–	> 1000 µM	> 400 µM	–	–	> 625 µM	anti-HIV activity [7]: devoid of any anti-HIV activity
72 µM	142 µM	531 µM	7.6 µM	903 µM	380 µM	–	Nc1nc2c(ncn2[C@H]2CC[C@@H](CO)O2)c(=O)[nH]1 [ddGuo, 2′,3′-Dideoxyguanosine]	> 5.5	942 µM	> 400 µM	64	–	486 µM	–

The next lines start with the compound.

SMILES	EC50 [1, 17]	IC50 [3]	IC50 [4]	EC50 [7, 21]	IC50 [11]	IC50 ([10]; Molt/4F)	Vmax [14]	MSV-induced C3H cell transformation S.I. [1]	IC50 [2]	CC50 [5]	HIV-induced cytopathogenicity in MT4 cells S.I. [7]	Vmax [9]	CC50 at 120 h [13]	further results
Nc1nc(N)c2ncn([C@H]3CC[C@@H](CO)O3)c2n1 [ddDAPR, 2,6-Diamino-9-(2,3-dideoxy-β-D-glycero-pentofuranosyl)purine]	19 µM	125 µM	466 µM	3.8 µM	324 µM	–	–	≧ 11	644 µM	≥ 200 µM	106	8.2^a µmole/mg proten/min	404 µM	EC50 [1, 18]: 84 µM; EC50 [1, 19]: 23 µM; IC50 [6, 20]: > 1000 µM; IC50 ([6]; without DCF (Table 4)): 128 µM; EC50 [7, 22]: 13 µM; EC50 [7, 23]: 3.8 µM; EC50 [8]: 2.5 to 3.6 µM; Km [9]: 29 µM; IC50 [10, 20]: > 1000 µM; IC50 ([10]; without DCF (Table 4)): 220 µM; IC50 [12, 24]: > 1000 µM; IC50 ([12]; MT4, without DCF (Table 4)): > 1000 µM; Vmax relative to that observed for Ado [14]: 3%
Nc1ncnc2c1ncn2[C@H]1CC[C@@H](CO)O1 [ddAdo, 2′,3′-dideoxyadenosine]	–	–	–	–	–	–	–	–	–	–	–	262^a µmole/mg proten/min	–	–
Nc1ncnc2c1ncn2[C@@H]1O[C@H](CO)[C@@H](O)[C@H]1O [Ado, adenosine]	–	–	–	–	–	–	–	–	–	–	–	287^a µmole/mg proten/min	–	–
Nc1nc(N)c2ncn([C@@H]3O[C@H](CO)[C@@H](O)[C@@H]3O)c2n1 [araDAPR, 9-β-D-arabinofuranosyl 2,6-diaminopurine]	> 400 µM	> 1000 µM	> 1000 µM	> 125 µM	> 1000 µM	> 1000 µM	5.9 µmole/mg proten/min	–	> 1000 µM	> 400 µM	–	–	> 625 µM	anti-HIV activity [7]: devoid of any anti-HIV activity; Km [14]: 83 µM
